Literature values in patent US20070148074A1, “Nanoparticle based stabilization of ir fluorescent dyes” (priority 2003, published 2007).

Legend:
[1] = human body, administered intravenously

CC1(C)C(/C=C/C=C/C=C/C=C2\N(CCCCS(=O)(=O)O)c3ccc4ccccc4c3C2(C)C)=[N+](CCCCS(=O)(=O)[O-])c2ccc3ccccc3c21 [ICG, indocyanine green]
elimination half-life [1]: 2 to 4 min
fraction of dye in plasma that is protein-bound: ~95%
